From US20260042834A1, “ANTI-CORTICOTROPIN-RELEASING HORMONE ANTIBODIES AND POLYCYSTIC OVARY SYNDROME” (HBM ALPHA THERAPEUTICS, INC., priority 2022, published 2026) come the findings set out here.

For this assay, the system named is human CRHR1. The experiment in a line: CRH-induced luciferase reporter blocking assay, CHO-CRE-hCRHR1 cells. It is filed as cell-based. Conditions: CHO-CRE-hCRHR1 Clone 11, data not shown. The method, then:
To create CHO-CRE-hCRHR1, -hCRHR2, -mCRHR1, and -mCRHR2 reporter cell lines, pcDNA3.1-hCRHR1, -hCRHR2, -mCRHR1, and -mCRHR2 were introduced into CHO-CRE cells established above by electroporation as described above. Selection antibiotics hygromycin at 500 μg/ml and G418 at 1,000 μg/ml were employed. Individual established stable cell lines were characterized by both CRH and forskolin stimulation.
Activated GPCR proteins increase production of the intracellular cAMP.
Blocking CRHR1 by small molecules or neutralization of CRH peptide can reduce luciferase expression if the CRH-CRHR1 system works in CHO-CRE-hCRHR1 cells.
50 μl of 4× serially diluted antibodies was added (8 points, 1/4 diluted by growth medium) to plates containing CHO-CRE-hCRHR1 cells, and 50 μl of 4×CRH (4× is 2 nM, final is 0.5 nM) was added. Similarly, 4×CRH (4× is 0.4 nM, final is 0.1 nM) was added to CHO-CRE-hCRHR2 cells and CHO-CRE-mCRHR1 cells, and 4×CRH (4× is 20 nM, final is 5 nM) was added to CHO-CRE-mCRHR2 cells. Next, plates were incubated 4-6 hours at 37° C. in a CO2 incubator. 60 μl of culture medium was removed, to which was added 60 μl of Bio-Glo luciferase, followed by incubation for 10 min at RT. Plates were read in a luciferase plate reader (EnVision, PerkinElmer).
A general note: Reporter assays use an easily measured gene product as a stand-in for the process of interest.

For the molecule `CCCCN(CC)c1nc(C)nc2c1c(C)c(C)n2-c1c(C)cc(C)cc1C` [Antalarmin, reference compound], the CRH-mediated luciferase expression entry is on record as “blocked”.
